# Reference: paper PMC10931745 (International Journal of Molecular Sciences, 2024)
# pIC50: −log10 of the molar value.
# Legend:
# [1] = target: T1, human topoisomerase I (hTopoI) (Homo sapiens, UniProt P11387); experiment: Human topoisomerase I relaxation assay; assay type: biochemical; conditions: 1 µM, supercoiled pHOT1 DNA
# T1 construct: purchased TopoGEN, Port Orange, FL, USA
# T1 sequence (P11387 1-765): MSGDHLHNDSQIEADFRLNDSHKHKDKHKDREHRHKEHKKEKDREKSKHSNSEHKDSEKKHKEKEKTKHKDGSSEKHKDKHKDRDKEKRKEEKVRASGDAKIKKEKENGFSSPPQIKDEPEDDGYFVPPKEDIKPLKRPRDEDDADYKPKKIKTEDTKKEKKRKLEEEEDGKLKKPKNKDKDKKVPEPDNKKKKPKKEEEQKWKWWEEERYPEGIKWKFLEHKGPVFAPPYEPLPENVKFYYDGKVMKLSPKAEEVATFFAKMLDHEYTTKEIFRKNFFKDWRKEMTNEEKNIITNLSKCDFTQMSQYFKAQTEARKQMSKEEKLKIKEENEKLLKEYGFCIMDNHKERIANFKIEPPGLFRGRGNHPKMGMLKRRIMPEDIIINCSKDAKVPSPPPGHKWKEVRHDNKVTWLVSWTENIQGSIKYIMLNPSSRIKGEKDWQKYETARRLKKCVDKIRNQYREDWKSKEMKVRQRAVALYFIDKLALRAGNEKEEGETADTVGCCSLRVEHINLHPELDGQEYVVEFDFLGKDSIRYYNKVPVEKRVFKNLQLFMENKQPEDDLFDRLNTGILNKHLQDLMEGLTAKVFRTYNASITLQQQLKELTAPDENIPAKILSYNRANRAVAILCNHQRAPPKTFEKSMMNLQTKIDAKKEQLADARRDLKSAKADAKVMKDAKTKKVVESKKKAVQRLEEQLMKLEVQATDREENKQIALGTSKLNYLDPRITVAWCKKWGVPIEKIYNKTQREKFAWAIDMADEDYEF
# Method: The human topoisomerase I relaxation assay was performed as reported in [86]. Shortly, the recombinant human topo I (TopoGEN, Port Orange, FL, USA) was incubated with the super-coiled pHOT1, in the presence or not of the tested compounds, at the indicated concentrations. The reaction products were then allowed to separate through the agarose gel electrophoresis, and ethidium bromide-stained DNA was visualized under UV light.
# [2] = system: Enterococcus faecalis (ATCC 19433); experiment: MIC/MBC broth dilution; assay type: cell-based
# In short: (§1)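 Broth dilution per CLSI in 96-well plates: complexes at 50, 70, 100, 150 and 200 µg/mL with bacteria, 37 °C overnight. Growth read at 600 nm; MIC/MBC (µg/mL) assigned against vehicle (DMSO) growth control in LB medium. Three independent experiments in triplicate.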
# [3] = system: Staphylococcus epidermidis (ATCC 14990); experiment: MIC/MBC broth dilution; assay type: cell-based
# In short: as §1
# [4] = DPPH radical scavenging assay; assay type: biochemical
# In short: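 Complexes tested at 10, 25, 50, 100 and 200 µg/mL against DPPH radical, absorbance read at 517 nm. Inhibition % calculated relative to DPPH control absorbance, with IC50 derived from these percentages. Trolox served as positive control; caffeine and theophylline as references.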
# [5] = system: human mammary epithelial cell line MCF-10A; experiment: MTT assay, toxicity towards normal cells; assay type: cell-based; conditions: 72 h
# In short: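 Cancer lines MCF-7 and MDA-MB-231 and non-tumour MCF-10A cells were treated 72 h with compound at 0.1–500 µM. Viability read by MTT; IC50 calculated from percent of untreated control.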
# MDA-MB-231 cells = experiment: TUNEL assay (DNA damage/apoptosis); assay type: cell-based, human; conditions: 30 µM, 24 h
# Method: The terminal deoxynucleotidyl transferase dUTP nick end labeling (TUNEL) assay was performed to detect cell apoptosis, following the manufacturer’s protocols (CF™488A TUNEL Assay Apoptosis Detection Kit, Biotium, Hayward, CA, USA), with some modifications, as previously indicated. Nuclei staining was performed using DAPI solution (0.2 µg/mL, Sigma Aldrich, Milan, Italy). A fluorescence microscope (Leica DM 6000) was used for the cell examinations at 20× magnification. LAS-X software 3.5.7.23225 was employed for the acquisition and processing of the images, which were representative of three independent experiments.
Compound,Inhibition of hTopo I supercoil relaxing activity [1],M.B.C. E. faecalis [2] [µg/mL],M.I.C. E. faecalis [2] [µg/mL],M.B.C. S. epidermidis [3] [µg/mL],M.I.C. S. epidermidis [3] [µg/mL],pIC50 [4],pIC50 [5],"DNA damage (green nuclear fluorescence, TUNEL) (MDA-MB-231 cells)"
"Cn1c(=O)c2c(n(C)[c]([Au-][I])[n+]2CC(O)c2ccccc2)n(C)c1=O (racemic) [AuL1, 1,3,7-Trimethylxanthin-9-[(2-hydroxy-2-phenyl)ethyl-8-ylidene]Au(I) Iodide]",totally inhibited,> 200,150,> 150,125,< 3.30,< 4.00,formation of a green nuclear fluorescence
"CC(=O)[O][Ag-][c]1n(C)c2c(c(=O)n(C)c(=O)n2C)[n+]1C1CCCCC1O (stereo not shown) [AgL2OAc, 1,3,7-Trimethylxanthin-9-[cyclohexan-2-ol-8-ylidene]Ag(I) Acetate]",totally inhibited,> 200,150,> 125,100,< 3.30,< 4.00,formation of a green nuclear fluorescence
